Reference: ChEMBL document CHEMBL5647698, “Covalent-Allosteric Inhibitors to Achieve Akt Isoform-Selectivity” (Angew Chem Int Ed Engl, 2019)
pIC50: −log10 of the molar value. Activity calls are given as the source filed them. No cut-off for these calls is given here.

Tests used:
[1] = molecular target: RAC-gamma serine/threonine-protein kinase (Homo sapiens, UniProt Q9Y243)
Description: Inhibition of wild-type AKT3 (unknown origin) by HTRF KinEASE assay

[2] = molecular target: RAC-alpha serine/threonine-protein kinase (Homo sapiens, UniProt P31749); assay: biochemical
PANC-1 [3] = assay: Downregulation of p-PRAS40 level at threonine 246 residue in Akt1 knockout human PANC-1 cells measured after 24 hrs by Western blotting analysis; assay type: functional, cell-based; details: dose 0.3-5 µM
PANC-1 [4] = assay: Downregulation of p-AKT level at serine 473 residue in Akt1 knockout human PANC-1 cells measured after 24 hrs by Western blotting analysis; assay type: functional, cell-based; details: dose 0.3-5 µM

Chain of RAC-alpha serine/threonine-protein kinase (P31749 whole entry): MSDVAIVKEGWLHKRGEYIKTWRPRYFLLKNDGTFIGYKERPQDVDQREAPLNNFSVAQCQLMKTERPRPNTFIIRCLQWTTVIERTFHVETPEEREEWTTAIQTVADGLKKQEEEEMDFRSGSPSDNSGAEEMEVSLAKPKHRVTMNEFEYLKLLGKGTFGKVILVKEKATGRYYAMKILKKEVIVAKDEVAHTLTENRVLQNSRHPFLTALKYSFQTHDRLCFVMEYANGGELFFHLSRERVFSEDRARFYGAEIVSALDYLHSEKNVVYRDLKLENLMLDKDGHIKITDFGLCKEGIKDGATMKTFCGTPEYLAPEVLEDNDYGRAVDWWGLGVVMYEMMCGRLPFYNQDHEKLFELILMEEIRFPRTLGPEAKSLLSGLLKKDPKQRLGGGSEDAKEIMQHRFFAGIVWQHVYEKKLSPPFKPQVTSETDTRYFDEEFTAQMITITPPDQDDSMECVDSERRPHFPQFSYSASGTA
Chain of RAC-gamma serine/threonine-protein kinase (Q9Y243 whole entry): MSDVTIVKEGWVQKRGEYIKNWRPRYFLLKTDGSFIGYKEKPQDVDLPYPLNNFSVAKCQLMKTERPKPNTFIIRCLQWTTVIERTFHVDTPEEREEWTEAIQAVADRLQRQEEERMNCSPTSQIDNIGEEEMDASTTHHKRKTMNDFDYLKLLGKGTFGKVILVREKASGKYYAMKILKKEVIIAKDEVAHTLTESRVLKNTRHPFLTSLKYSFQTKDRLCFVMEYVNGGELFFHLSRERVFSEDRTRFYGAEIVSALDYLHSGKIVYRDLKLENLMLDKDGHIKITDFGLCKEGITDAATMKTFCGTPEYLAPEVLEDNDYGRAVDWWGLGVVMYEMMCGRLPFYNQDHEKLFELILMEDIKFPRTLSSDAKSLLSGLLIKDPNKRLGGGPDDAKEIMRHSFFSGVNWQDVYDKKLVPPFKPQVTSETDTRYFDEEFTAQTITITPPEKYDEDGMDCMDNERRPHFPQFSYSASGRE

Structure (SMILES): Nc1ccc2[nH]c(=O)n(C3CCN(Cc4ccc(-c5[nH]c(=O)c(Cc6ccc(O)cc6)nc5-c5ccccc5)cc4)CC3)c2c1
- pIC50 [1]: 4.75
- pIC50 [2]: 5.25

Structure (SMILES): C=CC(=O)Nc1ccc2[nH]c(=O)n(C3CCN(Cc4ccc(-c5[nH]c(=O)c(CC(C)C)nc5-c5ccccc5)cc4)CC3)c2c1
- Activity (PANC-1 [3]): Active
- Activity (PANC-1 [4]): Active

Structure (SMILES): C=CC(=O)Nc1ccc2[nH]c(=O)n(C3CCN(Cc4ccc(-c5nc6cc[nH]c(=O)c6cc5-c5ccccc5)cc4)CC3)c2c1
- Activity (PANC-1 [3]): Active
- Activity (PANC-1 [4]): Active

Structure (SMILES): C=CC(=O)Nc1ccc2[nH]c(=O)n(C3CCN(Cc4ccc(-c5[nH]c(=O)c(C)nc5-c5ccccc5)cc4)CC3)c2c1
- Activity (PANC-1 [3]): Active
- Activity (PANC-1 [4]): Active

Structure (SMILES): CC(C)Cc1nc(-c2ccccc2)c(-c2ccc(CN3CCC(n4c(=O)[nH]c5ccc(N)cc54)CC3)cc2)[nH]c1=O
- pIC50 [2]: 5.55
